Data as given in PubChem BioAssay (NCI).
Values joined by “and” are separate entries in the source; they are usually repeats but may differ in a detail not shown here. Equal values may be shown once.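 Cells were grown in 96-well plates and exposed to each compound for 48 hours at five concentrations; endpoints were interpolated linearly between bracketing concentrations, or set to the highest concentration if not reached. GI50 marks 50% less growth. TGI denotes the concentration required for complete inhibition of growth.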

Columns and labels:
Experiment in all cases: NCI anticancer screen, dose series, 48 h
[1] = test system: HL-60(TB) leukemia
[2] = test system: HCC-2998 colon
[3] = test system: SK-MEL-28 melanoma
[4] = test system: RXF 393 renal
[5] = test system: MCF7 breast
[6] = test system: NCI-H522 lung
[7] = test system: UO-31 renal
[8] = test system: SK-MEL-2 melanoma
[9] = test system: OVCAR-5 ovarian
[10] = test system: K-562 leukemia

Row | Structure (SMILES) | GI50 [1] | TGI [1] | GI50 [2] | TGI [2] | GI50 [3] | TGI [3] | GI50 [4] | TGI [4] | GI50 [5] | TGI [5] | GI50 [6] | TGI [6] | GI50 [7] | TGI [7] | GI50 [8] | TGI [8] | GI50 [9] | TGI [9] | GI50 [10] | TGI [10]
1 | O=C(Nc1nc2ccc(F)cc2s1)c1cccnc1Nc1ccc(Cl)cc1 | 1.6 µM | 5.8 µM | 2.73 µM | > 100 µM | 3.47 µM | > 79.3 µM | 33.6 µM | > 100 µM | 2.32 µM | > 100 µM | 2.17 µM | > 24.2 µM | 2.36 µM | > 21.5 µM | 2.11 µM | 6.45 µM | 2.64 µM | > 61.1 µM | 0.961 µM | > 100 µM
2 | NC1=NCCN1CC(=O)O | – | > 1000 µM | > 10000 µM | > 10000 µM | > 10000 µM | > 10000 µM | > 10000 µM | > 10000 µM | > 10000 µM | > 10000 µM | – | > 10000 µM | > 10000 µM | > 10000 µM | > 10000 µM | > 10000 µM | > 10000 µM | > 10000 µM | – | > 1000 µM
3 | Cc1cc(O)cc(C)c1/C=C/c1cncc(-c2nn[nH]n2)c1 | > 25 µM | > 25 µM | > 25 µM | > 25 µM | > 25 µM | > 25 µM | > 25 µM | > 25 µM | > 25 µM | > 25 µM | > 25 µM | > 25 µM | > 25 µM | > 25 µM | > 25 µM | > 25 µM | > 25 µM | > 25 µM | > 25 µM | > 25 µM
4 | Nc1c(C(=O)c2ccc(CCCN3CCOCC3)cc2)cnn1-c1ccc(F)cc1 | > 25 µM | > 25 µM | > 25 µM | > 25 µM | > 25 µM | > 25 µM | > 25 µM | > 25 µM | > 25 µM | > 25 µM | > 25 µM | > 25 µM | > 25 µM | > 25 µM | > 25 µM | > 25 µM | > 25 µM | > 25 µM | 9.33 µM | > 25 µM
5 | O=S(=O)(Nc1cc(Cl)ccc1Cl)c1ccc(-c2cnc(C3CC3)o2)cc1 | 0.468 µM | 16.4 µM | 3.03 µM | 25.2 µM | 6.21 µM | 82.8 µM | 1.06 µM | 6.65 µM | 0.557 µM | > 100 µM | 1.75 µM | 39.2 µM | 2.49 µM | 43.5 µM | 11.1 µM | 68.8 µM | 3.39 µM | > 100 µM | 0.4 µM | > 100 µM
6 | O=c1oc2ccc(-n3c(=O)c4ccccc4c4ccccc4c3=O)cc2c2ccccc12 | – | > 100 µM | – | > 100 µM | – | > 100 µM | – | > 100 µM | – | > 100 µM | – | > 100 µM | – | > 100 µM | – | > 100 µM | – | > 100 µM | – | > 100 µM
7 | C=C(CN1CCN(c2cccc(C(F)(F)F)n2)CC1)c1ccc(C(=S)Nc2ccccc2N)cc1 | 2.29 µM | 5.66 µM | 5.74 µM | > 100 µM | 6.95 µM | 42.1 µM | 3.74 µM | > 100 µM | 2.87 µM | 14.5 µM | 3.01 µM | 31.4 µM | 4.14 µM | > 100 µM | 4.13 µM | > 100 µM | 3.67 µM | > 100 µM | 1.57 µM | 4.48 µM
8 | O=C(CCC(C(=O)c1ccccc1)c1ccccc1)c1ccccc1 (stereo not given) | 4.72 µM | 55.9 µM | 29.7 µM | > 100 µM | 55.7 µM | > 100 µM | 11.8 µM | > 100 µM | 15.1 µM | > 100 µM | 2.64 µM | 8.98 µM | 7.28 µM | > 100 µM | 7.07 µM | 46.7 µM | 80.4 µM | > 100 µM | 3.75 µM | > 100 µM
9 | S=C(N/N=C(/c1ccccc1)c1ccccn1)N1CCCCCC1 | < 0.001 µM | 4.13 µM | 1.17 µM | 3.13 µM and 1.98 µM | 0.863 µM and 0.639 µM | 2.41 µM and 2.15 µM | – | 1.63 µM and 2.32 µM | < 0.001 µM | 0.194 µM and 1.56 µM | 1.28 µM | 3.48 µM and 1.13 µM | – | 1.75 µM | 0.0269 µM | 2.12 µM and 2.14 µM | < 0.001 µM | 2.11 µM | < 0.001 µM | 0.0117 µM
10 | CNC(=O)Oc1cc(C)c(/C=C/c2cncc(C(=O)NC)c2)c(C)c1 | > 21.2 µM | > 25 µM | > 25 µM | > 25 µM | 18.8 µM | > 25 µM | 14.1 µM | > 25 µM | > 25 µM | > 25 µM | > 23.4 µM | > 25 µM | 13.3 µM | > 25 µM | > 25 µM | > 25 µM | > 25 µM | > 25 µM | 15.3 µM | > 25 µM
11 | O=C(NN=C1CCCCC1)c1[nH]c2ccc(F)cc2c1-c1ccccc1 | 18.2 µM | 52.7 µM | 17.4 µM | 36.4 µM | 27.3 µM | > 100 µM | 98.5 µM | > 100 µM | 26.8 µM | 80.4 µM | 44.1 µM | > 100 µM | 42.6 µM | > 100 µM | > 100 µM | > 100 µM | 45.6 µM | > 100 µM | 5.91 µM | 26.6 µM
12 | N#CS.N=C=S.N=C=S.[Cu+2].[NH2-].[NH2-].[NH2-].[NH2-].c1ccc2ncccc2c1 | > 100 µM | > 100 µM | 83.9 µM | > 100 µM | > 100 µM | > 100 µM | 25.5 µM | 44 µM | 18.2 µM | 35.9 µM | 44.8 µM | > 100 µM | 60.7 µM | > 100 µM | > 100 µM | > 100 µM | 21.6 µM | 41 µM | > 100 µM | > 100 µM
